PubChem BioAssay AID248 (DTP/NCI, 2004)
Values joined by “and” are separate entries in the source; they are usually repeats but may differ in a detail not shown here. Identical values can stand only once. Inconclusive results and toxic doses are left out. No stated cut-off is given here; in the data, active means T/C of 150% or more; inactive means T/C below 125%.

System: L1210 leukemia ip in BDF1 mice, survival T/C
Test: NCI In Vivo Anticancer Drug Screen. Data for tumor model L1210 Leukemia (intraperitoneal) in B6D2F1 (BDF1) mice
Settings: endpoint: mean survival time, higher = longer survival
Procedure, shortened: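 Mice bearing the transplanted tumor received compound or vehicle. Survival of the treated group was divided by that of the vehicle-treated control group to give the ratio.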

[1] = dose: 25.0 mg/kg/injection, schedule: Q01DX009 (ip), vehicle: saline
[2] = dose: 100.0 mg/kg/injection, schedule: Q04DX003 (ip), vehicle: saline
[3] = dose: 200.0 mg/kg/injection, schedule: Q04DX003 (ip), vehicle: saline
[4] = dose: 400.0 mg/kg/injection, schedule: Q01DX009 (ip), vehicle: saline
[5] = dose: 400.0 mg/kg/injection, schedule: Q04DX003 (ip), vehicle: saline
[6] = dose: 100.0 mg/kg/injection, schedule: Q01DX001 (ip), vehicle: carboxymethylcellulose (CMC)
[7] = dose: 200.0 mg/kg/injection, schedule: Q01DX001 (ip), vehicle: carboxymethylcellulose (CMC)
[8] = dose: 400.0 mg/kg/injection, schedule: Q01DX001 (ip), vehicle: carboxymethylcellulose (CMC)
[9] = dose: 50.0 mg/kg/injection, schedule: Q01DX009 (ip), vehicle: saline with Tween-80
[10] = dose: 100.0 mg/kg/injection, schedule: Q01DX009 (ip), vehicle: saline with Tween-80
[11] = dose: 200.0 mg/kg/injection, schedule: Q01DX009 (ip), vehicle: saline with Tween-80
[12] = dose: 100.0 mg/kg/injection, schedule: Q01DX001 (ip), vehicle: saline
[13] = dose: 200.0 mg/kg/injection, schedule: Q01DX001 (ip), vehicle: saline

Measured: T/C

CC/C(=N\N=C(N)N)c1ccc(NC(N)=S)cc1
inactive: dose: 5.0 mg/kg/injection, schedule: Q01DX009 (ip), vehicle: saline 100 % of control | dose: 10.0 mg/kg/injection, schedule: Q01DX009 (ip), vehicle: saline 105 % of control | dose: 20.0 mg/kg/injection, schedule: Q01DX009 (ip), vehicle: saline 107 % of control | [1] 107 % of control | dose: 40.0 mg/kg/injection, schedule: Q01DX009 (ip), vehicle: saline 103 % of control | dose: 80.0 mg/kg/injection, schedule: Q01DX009 (ip), vehicle: saline 117 % of control

O=S1(=O)CCC(N(/N=C/c2c[nH]c3ccccc23)c2ccccc2)C1 (configuration not stated)
inactive: dose: 100.0 mg/kg/injection, schedule: Q04DX002 (ip), vehicle: Klucel (hydroxypropylcellulose) (HPC) 103 % of control | dose: 200.0 mg/kg/injection, schedule: Q04DX002 (ip), vehicle: Klucel (hydroxypropylcellulose) (HPC) 110 % of control | dose: 400.0 mg/kg/injection, schedule: Q04DX002 (ip), vehicle: Klucel (hydroxypropylcellulose) (HPC) 100 % of control

CCOC(=O)CCCSCCCC(=O)OCC
inactive: dose: 100.0 mg/kg/injection, schedule: Q01DX009 (ip), vehicle: saline 111 % of control | [2] 111 % of control | dose: 200.0 mg/kg/injection, schedule: Q01DX009 (ip), vehicle: saline 101 % of control | [3] 98 % of control | [4] 110 % of control | [5] 88 % of control

CN=C(NC)c1ccc(NC(=O)c2ccc(C(=O)Nc3ccc(C(=NC)NC)cc3)c(N)c2)cc1
active: dose: 1.12 mg/kg/injection, schedule: Q01DX Z (ip), vehicle: water 170 % of control | dose: 2.25 mg/kg/injection, schedule: Q01DX Z (ip), vehicle: water 157 % of control | dose: 4.5 mg/kg/injection, schedule: Q01DX Z (ip), vehicle: carboxymethylcellulose (CMC) 180 % of control | dose: 9.0 mg/kg/injection, schedule: Q01DX Z (ip), vehicle: carboxymethylcellulose (CMC) 159 % of control
inactive: dose: 0.28 mg/kg/injection, schedule: Q01DX Z (ip), vehicle: water 98 % of control | dose: 0.56 mg/kg/injection, schedule: Q01DX Z (ip), vehicle: water 93 % of control | dose: 36.0 mg/kg/injection, schedule: Q01DX Z (ip), vehicle: carboxymethylcellulose (CMC) 117 % of control | dose: 50.0 mg/kg/injection, schedule: Q01DX Z (oral), vehicle: water 102 % of control | dose: 100.0 mg/kg/injection, schedule: Q01DX Z (oral), vehicle: water 105 % of control | dose: 200.0 mg/kg/injection, schedule: Q01DX Z (oral), vehicle: water 103 % of control | dose: 400.0 mg/kg/injection, schedule: Q01DX Z (oral), vehicle: water 103 % of control

CC(=O)Nc1ccc(-n2cnc3c(Cl)ncnc32)cc1C
inactive: [6] 87 % of control | [7] 91 % of control | [8] 91 % of control

O=C1CCCN1
inactive: [2] 92 % of control | [3] 97 % of control | [5] 92 % of control

Cc1ccc(C(CC(=O)NN)NN)c(O)c1 (configuration not stated)
inactive: [9] 104 % of control | [10] 101 % of control | [11] 108 % of control

CC1=NN(c2ccccc2)C(=O)C1N=Nc1ccc(S(=O)(=O)Nc2occ(C)c2C)cc1 (configuration not stated)
inactive: [6] 90 % of control | [7] 90 % of control | [8] 93 % of control

O=c1[nH]cc(F)c(=O)n1C1OC(CO)C(O)C1O (configuration not stated)
inactive: dose: 0.78 mg/kg/injection, schedule: Q01DX009 (ip), vehicle: saline 124 % of control | dose: 6.0 mg/kg/injection, schedule: Q01DX009 (ip), vehicle: saline 97 % of control | dose: 18.8 mg/kg/injection, schedule: Q04DX003 (ip), vehicle: saline 107 % of control | [1] 118 % of control | dose: 25.0 mg/kg/injection, schedule: Q04DX003 (ip), vehicle: saline 105 % of control | dose: 37.5 mg/kg/injection, schedule: Q04DX003 (ip), vehicle: saline 110 % of control | dose: 50.0 mg/kg/injection, schedule: Q04DX003 (ip), vehicle: saline 110 % of control
active: dose: 1.5 mg/kg/injection, schedule: Q01DX009 (ip), vehicle: saline 159 % of control | dose: 1.56 mg/kg/injection, schedule: Q01DX009 (ip), vehicle: saline 152 % of control | dose: 3.12 mg/kg/injection, schedule: Q01DX005 (ip), vehicle: saline 167 % of control | dose: 3.12 mg/kg/injection, schedule: Q01DX009 (ip), vehicle: saline 173 % of control | dose: 6.25 mg/kg/injection, schedule: Q01DX005 (ip), vehicle: saline 171 % of control | dose: 6.25 mg/kg/injection, schedule: Q01DX009 (ip), vehicle: saline 204 % of control | dose: 12.5 mg/kg/injection, schedule: Q01DX009 (ip), vehicle: saline 231 % of control | dose: 178.0 mg/kg/injection, schedule: Q01DX009 (ip), vehicle: saline 165 % of control | dose: 267.0 mg/kg/injection, schedule: Q01DX009 (ip), vehicle: saline 163 % of control | [4] 150 % of control | dose: 600.0 mg/kg/injection, schedule: Q01DX009 (ip), vehicle: saline 171 % of control

O=[N+]([O-])c1[nH]cnc1S(=O)(=O)Cl
inactive: [12] 94 % of control | [13] 94 % of control | dose: 400.0 mg/kg/injection, schedule: Q01DX001 (ip), vehicle: saline 97 % of control

COC(=O)c1cc(Cl)ccc1O
inactive: dose: 37.5 mg/kg/injection, schedule: Q04DX003 (ip), vehicle: Klucel (hydroxypropylcellulose) (HPC) 100 % of control | dose: 75.0 mg/kg/injection, schedule: Q04DX003 (ip), vehicle: Klucel (hydroxypropylcellulose) (HPC) 100 % of control | dose: 150.0 mg/kg/injection, schedule: Q04DX003 (ip), vehicle: Klucel (hydroxypropylcellulose) (HPC) 92 % of control

COc1cccc(N2C(=O)C=CC2=O)c1
inactive: dose: 1.56 mg/kg/injection, schedule: Q01DX009 (ip), vehicle: Klucel (hydroxypropylcellulose) (HPC) 97 % of control | dose: 3.12 mg/kg/injection, schedule: Q01DX009 (ip), vehicle: Klucel (hydroxypropylcellulose) (HPC) 97 % of control

Nc1[nH][nH]c(=O)c1N
inactive: dose: 50.0 mg/kg/injection, schedule: Q01DX009 (ip), vehicle: Klucel (hydroxypropylcellulose) (HPC) 117 % of control | dose: 100.0 mg/kg/injection, schedule: Q01DX009 (ip), vehicle: Klucel (hydroxypropylcellulose) (HPC) 100 % of control | dose: 200.0 mg/kg/injection, schedule: Q01DX009 (ip), vehicle: Klucel (hydroxypropylcellulose) (HPC) 100 % of control

CCNc1nnnn1-c1ccccc1
inactive: [12] 97 % of control | [13] 101 % of control

COc1cc2ccnc(Cc3ccccc3)c2cc1OC
inactive: [9] 103 % of control | [10] 93 % of control and 94 % of control | dose: 100.0 mg/kg/injection, schedule: Q04DX003 (ip), vehicle: saline with Tween-80 102 % of control | [11] 88 % of control | dose: 200.0 mg/kg/injection, schedule: Q04DX003 (ip), vehicle: saline with Tween-80 100 % of control

C#CC(NC(C)(C)CC(C)(C)C)C(C)C (configuration not stated)
inactive: dose: 100.0 mg/kg/injection, schedule: Q04DX002 (ip), vehicle: saline 109 % of control | dose: 200.0 mg/kg/injection, schedule: Q04DX002 (ip), vehicle: saline 109 % of control | dose: 400.0 mg/kg/injection, schedule: Q04DX002 (ip), vehicle: saline 100 % of control

Cc1[nH]c(C(=O)OCc2ccccc2)c(C)c1C(=O)OCc1ccccc1
inactive: dose: 12.0 mg/kg/injection, schedule: Q01DX001 (ip), vehicle: Klucel (hydroxypropylcellulose) (HPC) 94 % of control | dose: 25.0 mg/kg/injection, schedule: Q01DX001 (ip), vehicle: Klucel (hydroxypropylcellulose) (HPC) 100 % of control | dose: 50.0 mg/kg/injection, schedule: Q01DX001 (ip), vehicle: Klucel (hydroxypropylcellulose) (HPC) 97 % of control | dose: 200.0 mg/kg/injection, schedule: Q01DX001 (ip), vehicle: saline with Tween-80 102 % of control | dose: 400.0 mg/kg/injection, schedule: Q01DX001 (ip), vehicle: saline with Tween-80 102 % of control
